Test results from patent publication US20130165368A1, “ANTIMICROBIAL COMPOUNDS” (priority 2010, published 2013).
Like-named read-outs stand apart in the source and are kept apart here.

Columns and labels:
Type in all cases: cell-based
[1] = tested on: Staphylococcus aureus (MRSA); assay: MIC agar dilution, micro-organism 12 (11939); conditions: Staphylococcus aureus (MRSA) 11939
Procedure: (§1) Throughout the period of testing the microbial strains were subcultured and incubated for 18-20 hours at 37° C. on a weekly basis. Horse blood agar plates were used to sustain the micro-organisms both prior to and throughout testing. The alkoxylated alkanols listed in Table II below were obtained (these are obtainable from Sigma-Aldrich Company Ltd, Dorset, England), each having a GC purity of at least 97%.
(§2) Molar equivalent concentrations were used to allow comparison between compounds of differing molecular mass. Due to weighing difficulties, any compound in solid form was melted in a water bath prior to dilution. To make ten-times strength concentrations, which takes into account agar dilution, 0.0352 mmol of each compound was weighed into plastic universal bottles and 4 mL of sterile distilled water (SDW) was added. To produce a homogenous emulsion the universals were vortexed; once achieved the emulsions were serial diluted by adding 2 mL to 2 mL of SDW.
(§3) Myristyl alcohol and lauryl alcohol were re-weighed and dissolved in 25 μL of the polar solvent 1-methyl-2-pyrrolidone (M6762; Sigma-Aldrich) in sterile glass universals due to an inability to achieve an even suspension. To maintain an even emulsion in the presence of SDW 37.5 μL of the non-ionic detergent Tween 20 (P1379, Sigma-Aldrich) was also added. 3.9375 mL of SDW was added to these, to create a 4 mL volume; they were vortexed and diluted as before.
(§4) For every 100 mL of Isosensitest agar (IST) (CM0471; Oxoid, Basingstoke, England), 3.1 g of the IST powder was added to 100 mL SDW (as per manufacturer's instructions) and sterilised for 15 minutes at 121° C. Once sterilised, the molten agar was cooled to 50° C. in a water-bath. Subsequently 4.8 g of CCEY powder (BC2160; Bioconnections, Wetherby, England), also known as Brazier's medium, was added to 100 mL SDW for every 100 mL of agar needed. This was then sterilised for 15 minutes at 121° C. Once sterilised the molten agar was cooled to 50° C. in a water-bath and 4 mL of egg-yolk emulsion (S2073; TCS Biosciences Ltd, Buckingham, United Kingdom) and 1 mL of lysed defibrinated horse blood (HB035; TCS Biosciences Ltd, Buckingham, United Kingdom) were also added for every 100 mL needed. Horse blood lysis is achieved by dilution to half concentration with SDW; when fully lysed the mixture will turn dark red in colour.
(§5) 18 mL agar was added to each universal and then poured into sterile Petri dishes. This step creates a 1/10 dilution resulting in agar plates of the required strength. Control plates for each set of strains were created by adding 18 mL of agar to 2 mL of SDW.
(§6) Suspensions of each bacterial species were prepared with a density equal to that of a 0.5 McFarland standard using a densitometer. All suspensions were made using sterile distilled water and fresh 18-20 hour cultures. As a 0.5 McFarland standard contains 1.5×10^8 CFU/mL and the multipoint inoculators applies 1 μL spots of liquid, each bacterial suspension was diluted 1/15 (20 μL suspension to 280 μL sterile distilled water).
(§7) Bacterial suspensions were prepared from fresh 18-24 hour cultures as previously described. 1 μL of each strain was inoculated onto all 100 agar plates containing a different chemical concentration and the 2 control plates. This was done using a multipoint inoculator which inoculates 20 strains per plate. All plates were incubated for 22 hours at 37° C. in aerobic conditions.
(§8) Each plate was examined for bacterial growth after 22 and 48 hours, with each being incubated in between examinations. A positive result was recorded as growth of ≧10 colonies. A negative result was recorded as growth of <10 colonies as this is equivalent to 99.9% inhibition. The lowest concentration of chemical that inhibited growth was recorded as the MIC. The results are recorded in Table IV below, where the numbers are quoted in mmol/L. […]

Steptococcus pyogenes = assay: MIC agar dilution, micro-organism 11 (8306); conditions: Steptococcus pyogenes 8306
Procedure: as §1, §2, §3, §4, §5, §6, §7, §8

Escherichia coli = assay: MIC agar dilution, micro-organism 1 (10418); conditions: Escherichia coli 10418
Procedure: as §1, §2, §3, §4, §5, §6, §7, §8

Staphylococcus aureus = assay: MIC agar dilution, micro-organism 13 (6571); conditions: Staphylococcus aureus 6571
Procedure: as §1, §2, §3, §4, §5, §6, §7, §8

Klebsiella pneumoniae = assay: MIC agar dilution, micro-organism 2 (9528); conditions: Klebsiella pneumoniae 9528
Procedure: as §1, §2, §3, §4, §5, §6, §7
(§9) Each plate was examined for bacterial growth after 22 and 48 hours, with each being incubated in between examinations. A positive result was recorded as growth of ≧10 colonies. A negative result was recorded as growth of <10 colonies as this is equivalent to 99.9% inhibition. The lowest concentration of chemical that inhibited growth was recorded as the MIC. The results are recorded in Table IV below, where the numbers are quoted in mmol/L.
(§10) Further experiments have also been conducted to determine the MIC of a number of other compositions as follows. […]

Candida glabrata = assay: MIC agar dilution, micro-organism 20 (3943); conditions: Candida glabrata 3943
Procedure: as §1, §2, §3, §4, §5, §6, §7, §8

Acinetobacter baumannii = assay: MIC agar dilution, micro-organism 10 (19606); conditions: Acinetobacter baumannii 19606
Procedure: as §1, §2, §3, §4, §5, §6, §7, §9, §10

Enterococcus faecalis = assay: MIC agar dilution, micro-organism 17 (775); conditions: Enterococcus faecalis 775
Procedure: as §1, §2, §3, §4, §5, §6, §7, §8

Bacillus subtilis = assay: MIC agar dilution, micro-organism 18 (9372); conditions: Bacillus subtilis 9372
Procedure: as §1, §2, §3, §4, §5, §6, §7, §8

Pseudomonas aeruginosa = assay: MIC agar dilution, micro-organism 7 (10662); conditions: Pseudomonas aeruginosa 10662
Procedure: as §1, §2, §3, §4, §5, §6, §7, §9, §10

Salmonella typhimurium = assay: MIC agar dilution, micro-organism 6 (74); conditions: Salmonella typhimurium 74
Procedure: as §1, §2, §3, §4, §5, §6, §7, §9, §10

[2] = tested on: Staphylococcus epidermidis; assay: MIC agar dilution, micro-organism 14 (11047); conditions: Staphylococcus epidermidis 11047
Procedure: as §1, §2, §3, §4, §5, §6, §7, §8

Candida albicans = assay: MIC agar dilution, micro-organism 19 (90028); conditions: Candida albicans 90028
Procedure: as §1, §2, §3, §4, §5, §6, §7, §8

Enterococcus faecium = assay: MIC agar dilution, micro-organism 16 (7171); conditions: Enterococcus faecium 7171
Procedure: as §1, §2, §3, §4, §5, §6, §7, §8

Serratia marcescens = assay: MIC agar dilution, micro-organism 5 (10211); conditions: Serratia marcescens 10211
Procedure: as §1, §2, §3, §4, §5, §6, §7, §9, §10

Burkholderia cepacia = assay: MIC agar dilution, micro-organism 9 (1222); conditions: Burkholderia cepacia 1222
Procedure: as §1, §2, §3, §4, §5, §6, §7, §9, §10

Listeria monocytogenes = assay: MIC agar dilution, micro-organism 15 (11994); conditions: Listeria monocytogenes 11994
Procedure: as §1, §2, §3, §4, §5, §6, §7, §8

Providencia rettgeri = assay: MIC agar dilution, micro-organism 3 (7475); conditions: Providencia rettgeri 7475
Procedure: as §1, §2, §3, §4, §5, §6, §7, §8

Enterobacter cloacae = assay: MIC agar dilution, micro-organism 4 (11936); conditions: Enterobacter cloacae 11936
Procedure: as §1, §2, §3, §4, §5, §6, §7, §9, §10

Yersinia enterocolitica = assay: MIC agar dilution, micro-organism 8 (11176); conditions: Yersinia enterocolitica 11176
Procedure: as §1, §2, §3, §4, §5, §6, §7, §9, §10

[3] = Staphylococcus aureus, MRSA, 48 h, 48 hrs, read-out: MIC
[4] = Staphylococcus aureus, 48 h, 48 hrs, read-out: MIC
[5] = Nakaseomyces glabratus, 48 h, 48 hrs, read-out: MIC
[6] = Salmonella enterica, 48 hrs, read-out: MIC

Measured: MIC

CCCCCCCCCCCCCCCCOCCO [C16E1, ceteth-1]
880 µM: Candida glabrata; 22 hrs | Candida glabrata; 48 hrs
>880 µM: [1]; 22 hrs | [1]; 48 hrs | Steptococcus pyogenes; 22 hrs | Steptococcus pyogenes; 48 hrs | Escherichia coli; 22 hrs | Escherichia coli; 48 hrs | Staphylococcus aureus; 22 hrs | Staphylococcus aureus; 48 hrs | Klebsiella pneumoniae; 22 hrs | Klebsiella pneumoniae; 48 hrs | Acinetobacter baumannii; 22 hrs | Acinetobacter baumannii; 48 hrs | Enterococcus faecalis; 22 hrs | Enterococcus faecalis; 48 hrs | Bacillus subtilis; 22 hrs | Bacillus subtilis; 48 hrs | Pseudomonas aeruginosa; 22 hrs | Pseudomonas aeruginosa; 48 hrs | Salmonella typhimurium; 22 hrs | Salmonella typhimurium; 48 hrs | [2]; 22 hrs | [2]; 48 hrs | Candida albicans; 22 hrs | Candida albicans; 48 hrs | Enterococcus faecium; 22 hrs | Enterococcus faecium; 48 hrs | Serratia marcescens; 22 hrs | Serratia marcescens; 48 hrs | Burkholderia cepacia; 22 hrs | Burkholderia cepacia; 48 hrs | Listeria monocytogenes; 22 hrs | Listeria monocytogenes; 48 hrs | Providencia rettgeri; 22 hrs | Providencia rettgeri; 48 hrs | Enterobacter cloacae; 22 hrs | Enterobacter cloacae; 48 hrs | Yersinia enterocolitica; 22 hrs | Yersinia enterocolitica; 48 hrs

OCCCCCCCCCCCCO [D, 1,12-dodecanediol, reference compound]
> 880 µM: [1]; [3] | Steptococcus pyogenes; 48 h, 48 hrs, read-out: MIC | Escherichia coli; 48 hrs, read-out: MIC | Staphylococcus aureus; [4] | Klebsiella pneumoniae; 48 hrs, read-out: MIC | Candida glabrata; [5] | Acinetobacter baumannii; 48 hrs, read-out: MIC | Enterococcus faecalis; 48 hrs, read-out: MIC | Bacillus subtilis; 48 hrs, read-out: MIC | Pseudomonas aeruginosa; 48 hrs, read-out: MIC | Salmonella typhimurium; [6] | [2]; 48 hrs, read-out: MIC | Candida albicans; 48 hrs, read-out: MIC | Enterococcus faecium; 48 hrs, read-out: MIC | Serratia marcescens; 48 hrs, read-out: MIC | Burkholderia cepacia; 48 hrs, read-out: MIC | Listeria monocytogenes; 48 hrs, read-out: MIC | Providencia rettgeri; 48 hrs, read-out: MIC | Enterobacter cloacae; 48 hrs, read-out: MIC | Yersinia enterocolitica; 48 hrs, read-out: MIC

OCCOCCOCCCCCCCCCCCCOCCOCCO [DEG2, 3,6,19,22-tetraoxatetracosane-1,24-diol]
880 µM: Steptococcus pyogenes; 48 h, 48 hrs, read-out: MIC | Klebsiella pneumoniae; 48 hrs, read-out: MIC
> 880 µM: [1]; [3] | Escherichia coli; 48 hrs, read-out: MIC | Staphylococcus aureus; [4] | Candida glabrata; [5] | Acinetobacter baumannii; 48 hrs, read-out: MIC | Enterococcus faecalis; 48 hrs, read-out: MIC | Bacillus subtilis; 48 hrs, read-out: MIC | Pseudomonas aeruginosa; 48 hrs, read-out: MIC | Salmonella typhimurium; [6] | [2]; 48 hrs, read-out: MIC | Candida albicans; 48 hrs, read-out: MIC | Enterococcus faecium; 48 hrs, read-out: MIC | Serratia marcescens; 48 hrs, read-out: MIC | Burkholderia cepacia; 48 hrs, read-out: MIC | Listeria monocytogenes; 48 hrs, read-out: MIC | Providencia rettgeri; 48 hrs, read-out: MIC | Enterobacter cloacae; 48 hrs, read-out: MIC | Yersinia enterocolitica; 48 hrs, read-out: MIC
